Measured values as given in patent US9221827B2, “Antimicrobial compounds and methods of making and using the same” (Melinta Therapeutics, Inc., priority 2011, dated 2015).

System: Escherichia coli strain ATCC25922
Experiment: standard microdilution assay to determine minimum inhibitory concentrations (MICs)
Type: cell-based
Details: Escherichia coli strain ATCC25922, microdilution
In short: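 MICs come from CLSI-guided microdilution in 100 μl, run alongside reference-strain performance standards. Values appear as "+" or "−" relative to 16 micrograms/ml, with "N/A" marking missing data.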

Row | Compound | E. coli ATCC25922 MIC
1 | N=C(N)NCCCNCc1ccc(-n2cc3cc(-c4cc(CCCN)cc(OC(F)(F)F)c4Cl)[nH]c3nc2=O)cc1 [Compound 225] | + (a “+” indicates that the compound has an MIC value of 16 micrograms/ml or less)
2 | N=C(N)NCCCNCc1ccc(-n2cc3cc(-c4cc(CCCCN)cc(Cl)c4C(F)(F)F)[nH]c3nc2=O)cc1 [Compound 226] | + (a “+” indicates that the compound has an MIC value of 16 micrograms/ml or less)
3 | C[C@H](NCCCNC(=N)N)c1ccc(-n2cc3cc(-c4ccc(C(NC5CN(C(=N)N)C5)C(F)(F)F)cc4)[nH]c3nc2=O)cc1 (stereo partly shown) [Compound 227] | + (a “+” indicates that the compound has an MIC value of 16 micrograms/ml or less)
4 | N=C(N)NCCCNCc1ccc(-n2cc3cc(-c4cc(CCCN)cc(Cl)c4F)[nH]c3nc2=O)cc1 [Compound 228] | + (a “+” indicates that the compound has an MIC value of 16 micrograms/ml or less)
5 | CCOc1cc(CCCCN)cc(-c2cc3cn(-c4ccc(CNCCCNC(=N)N)cc4)c(=O)nc3[nH]2)c1C(F)(F)F [Compound 229] | + (a “+” indicates that the compound has an MIC value of 16 micrograms/ml or less)
6 | C[C@H](N)CCCc1cc(OC(F)(F)F)cc(-c2cc3cn(-c4ccc([C@H](C)NCCCNC(=N)N)cc4)c(=O)nc3[nH]2)c1 [Compound 230] | + (a “+” indicates that the compound has an MIC value of 16 micrograms/ml or less)
7 | CC(N)CCCc1cc(SC(F)(F)F)cc(-c2cc3cn(-c4ccc(C(C)NCCCNC(=N)N)cc4)c(=O)nc3[nH]2)c1 (stereo not shown) [Compound 231] | + (a “+” indicates that the compound has an MIC value of 16 micrograms/ml or less)
8 | CCc1cc(CCCCN)cc(-c2cc3cn(-c4ccc(CNCCCNC(=N)N)cc4)c(=O)nc3[nH]2)c1C(F)(F)F [Compound 233] | + (a “+” indicates that the compound has an MIC value of 16 micrograms/ml or less)
9 | C[C@H](N)CCCc1cc(SC(F)(F)F)cc(-c2cc3cn(-c4ccc(CNCCCNC(=N)N)cc4)c(=O)nc3[nH]2)c1 [Compound 235] | + (a “+” indicates that the compound has an MIC value of 16 micrograms/ml or less)
10 | C[C@H](N)CCCc1cc(-c2cc3cn(-c4ccc([C@H](C)NCCCNC(=N)N)cc4)c(=O)nc3[nH]2)cc(C(F)(F)F)c1 [Compound 236] | + (a “+” indicates that the compound has an MIC value of 16 micrograms/ml or less)
11 | Cc1c(OC(F)F)cc(CCCCN)cc1-c1cc2cn(-c3ccc(CNCCCNC(=N)N)cc3)c(=O)nc2[nH]1 [Compound 237] | + (a “+” indicates that the compound has an MIC value of 16 micrograms/ml or less)
12 | N=C(N)NCCCNCc1ccc(-n2cc3cc(-c4cc(CC[C@@H](O)CN)cc(OC(F)(F)F)c4)[nH]c3nc2=O)cc1 [Compound 238] | + (a “+” indicates that the compound has an MIC value of 16 micrograms/ml or less)
13 | N=C(N)NCCCNCc1ccc(-n2cc3cc(-c4cc(CC[C@H](O)CN)cc(OC(F)(F)F)c4)[nH]c3nc2=O)cc1 [Compound 239] | + (a “+” indicates that the compound has an MIC value of 16 micrograms/ml or less)
14 | N=C(N)NCCCNCc1ccc(-n2cc3cc(-c4cc(CCC(O)CN)cc(OC(F)(F)F)c4)[nH]c3nc2=O)cc1 (stereo not shown) [Compound 240] | + (a “+” indicates that the compound has an MIC value of 16 micrograms/ml or less)
15 | CC(CN)Cc1cc(OC(F)(F)F)cc(-c2cc3cn(-c4ccc(CNCCCNC(=N)N)cc4)c(=O)nc3[nH]2)c1 (stereo not shown) [Compound 241] | + (a “+” indicates that the compound has an MIC value of 16 micrograms/ml or less)
16 | CC(CN)Cc1cc(-c2cc3cn(-c4ccc(CNCCCNC(=N)N)cc4)c(=O)nc3[nH]2)cc(C(F)(F)F)c1 (stereo not shown) [Compound 242] | + (a “+” indicates that the compound has an MIC value of 16 micrograms/ml or less)
17 | CC(C)(CN)CCc1cc(Cl)c(F)c(-c2cc3cn(-c4ccc(CNCCCNC(=N)N)cc4)c(=O)nc3[nH]2)c1 [Compound 243] | + (a “+” indicates that the compound has an MIC value of 16 micrograms/ml or less)
18 | N=C(N)NCCCNCc1ccc(-n2cc3cc(-c4cc(CCCCN)cc(CF)c4C(F)(F)F)[nH]c3nc2=O)cc1 [Compound 244] | + (a “+” indicates that the compound has an MIC value of 16 micrograms/ml or less)
19 | CCOc1cc(CCCCN)cc(-c2cc3cn(-c4ccc(CNCCCNC(=N)N)cc4)c(=O)nc3[nH]2)c1F [Compound 245] | + (a “+” indicates that the compound has an MIC value of 16 micrograms/ml or less)
20 | N=C(N)NCCCNCc1ccc(-n2cc3cc(-c4cc(CCCCN)cc(CO)c4C(F)(F)F)[nH]c3nc2=O)cc1 [Compound 246] | + (a “+” indicates that the compound has an MIC value of 16 micrograms/ml or less)
21 | CC(CCN)Cc1cc(SC(F)(F)F)cc(-c2cc3cn(-c4ccc([C@H](C)NCCCNC(=N)N)cc4)c(=O)nc3[nH]2)c1 (stereo partly shown) [Compound 247] | + (a “+” indicates that the compound has an MIC value of 16 micrograms/ml or less)

Row | Compound | E. coli ATCC25922 MIC
22 | C[C@H](N)CCCc1cc(-c2cc3cn(-c4ccc(CNCCCNC(=N)N)cc4)c(=O)nc3[nH]2)cc(C(F)(F)F)c1 [Compound 248] | + (a “+” indicates that the compound has an MIC value of 16 micrograms/ml or less)
23 | C[C@@H](N)CCCc1cc(-c2cc3cn(-c4ccc(CNCCCNC(=N)N)cc4)c(=O)nc3[nH]2)cc(C(F)(F)F)c1 [Compound 249] | + (a “+” indicates that the compound has an MIC value of 16 micrograms/ml or less)
24 | N=C(N)NCCCNCc1ccc(-n2cc3cc(-c4cc(CCCCN)cc(CN)c4C(F)(F)F)[nH]c3nc2=O)cc1 [Compound 250] | + (a “+” indicates that the compound has an MIC value of 16 micrograms/ml or less)
25 | CCCOc1cc(CCCCN)cc(-c2cc3cn(-c4ccc(CNCCCNC(=N)N)cc4)c(=O)nc3[nH]2)c1C(F)(F)F [Compound 251] | + (a “+” indicates that the compound has an MIC value of 16 micrograms/ml or less)
26 | N=C(N)NCCCNCc1ccc(-n2cc3cc(-c4cc(CC(O)CCN)cc(OC(F)(F)F)c4)[nH]c3nc2=O)cc1 (stereo not shown) [Compound 252] | + (a “+” indicates that the compound has an MIC value of 16 micrograms/ml or less)
27 | N=C(N)NCCCNCc1ccc(-n2cc3cc(-c4cc(CCC5(CN)CCC5)cc(Cl)c4F)[nH]c3nc2=O)cc1 [Compound 253] | + (a “+” indicates that the compound has an MIC value of 16 micrograms/ml or less)
28 | N=C(N)NCCCNCc1ccc(-n2cc3cc(-c4cc(CCC(O)CN)cc(Cl)c4F)[nH]c3nc2=O)cc1 (stereo not shown) [Compound 254] | + (a “+” indicates that the compound has an MIC value of 16 micrograms/ml or less)
29 | CC(C)(N)CCc1cc(OC(F)(F)F)cc(-c2cc3cn(-c4ccc(CNCCCNC(=N)N)cc4)c(=O)nc3[nH]2)c1 [Compound 255] | + (a “+” indicates that the compound has an MIC value of 16 micrograms/ml or less)
30 | CC(CN)Cc1cc(Cl)c(F)c(-c2cc3cn(-c4ccc(CNCCCNC(=N)N)cc4)c(=O)nc3[nH]2)c1 (stereo not shown) [Compound 256] | + (a “+” indicates that the compound has an MIC value of 16 micrograms/ml or less)
31 | CC(N)CCc1cc(Cl)c(F)c(-c2cc3cn(-c4ccc(CNCCCNC(=N)N)cc4)c(=O)nc3[nH]2)c1 (stereo not shown) [Compound 257] | + (a “+” indicates that the compound has an MIC value of 16 micrograms/ml or less)
32 | N=C(N)NCCCNCc1ccc(-n2cc3cc(-c4cc(CCC(O)CN)ccc4F)[nH]c3nc2=O)cc1 (stereo not shown) [Compound 258] | + (a “+” indicates that the compound has an MIC value of 16 micrograms/ml or less)
33 | CC(C)(N)CCc1cc(-c2cc3cn(-c4ccc(CNCCCNC(=N)N)cc4)c(=O)nc3[nH]2)cc(C(F)(F)F)c1 [Compound 259] | + (a “+” indicates that the compound has an MIC value of 16 micrograms/ml or less)
34 | CC(N)CCc1cc(OC(F)(F)F)cc(-c2cc3cn(-c4ccc(CNCCCNC(=N)N)cc4)c(=O)nc3[nH]2)c1 (stereo not shown) [Compound 260] | + (a “+” indicates that the compound has an MIC value of 16 micrograms/ml or less)
35 | CC(C)c1cc(CCC[C@H](C)N)cc(-c2cc3cn(-c4ccc(CNCCCNC(=N)N)cc4)c(=O)nc3[nH]2)c1Cl [Compound 261] | + (a “+” indicates that the compound has an MIC value of 16 micrograms/ml or less)
36 | CSc1cc(CCCCN)cc(-c2cc3cn(-c4ccc(CNCCCNC(=N)N)cc4)c(=O)nc3[nH]2)c1C(F)(F)F [Compound 262] | + (a “+” indicates that the compound has an MIC value of 16 micrograms/ml or less)
37 | C[C@H](NCCCNC(=N)N)c1ccc(-n2cc3cc(-c4cc(CCCC(C)(C)N)cc(OC(F)(F)F)c4)[nH]c3nc2=O)cc1 [Compound 264] | + (a “+” indicates that the compound has an MIC value of 16 micrograms/ml or less)
38 | COc1cc(CCCCN)cc(-c2cc3cn(-c4ccc(CNCCCNC(=N)N)cc4)c(=O)nc3[nH]2)c1C(F)(F)F [Compound 265] | + (a “+” indicates that the compound has an MIC value of 16 micrograms/ml or less)
39 | CC(N)CCCc1cc(CCl)cc(-c2cc3cn(-c4ccc(CNCCCNC(=N)N)cc4)c(=O)nc3[nH]2)c1 (stereo not shown) [Compound 266] | + (a “+” indicates that the compound has an MIC value of 16 micrograms/ml or less)
40 | N=C(N)NCCCNCc1ccc(-n2cc3cc(-c4cc(Cl)c(F)c(CCCCN)c4)[nH]c3nc2=O)cc1 [Compound 267] | + (a “+” indicates that the compound has an MIC value of 16 micrograms/ml or less)
41 | CC(N)CCCc1cc(Cl)c(F)c(-c2cc3cn(-c4ccc(CNCCCNC(=N)N)cc4)c(=O)nc3[nH]2)c1 (stereo not shown) [Compound 268] | + (a “+” indicates that the compound has an MIC value of 16 micrograms/ml or less)
42 | CC(N)CCCc1cc(Cl)c(F)c(-c2cc3cn(-c4ccc(C(C)NCCCNC(=N)N)cc4)c(=O)nc3[nH]2)c1 (stereo not shown) [Compound 269] | + (a “+” indicates that the compound has an MIC value of 16 micrograms/ml or less)

Same assay, conditions: Escherichia coli strain ATCC25922, microdilution; read-out: E. coli ATCC25922 MIC

Row | Compound | MIC [µg/mL]
43 | C[C@H](N)CCCc1cc(Cl)c(F)c(-c2cc3cn(-c4ccc([C@H](C)NCCCNC(=N)N)cc4)c(=O)nc3[nH]2)c1 [Compound 234] | ≤ 16
